Test results reported in patent US4069382A, “9-(5-O-Acyl-β-D-arabinofuranosyl)adenine compounds” (Parke, Davis & Company, priority 1976, dated 1978).
In brackets after ≈: the same amount, converted by molar mass.

Test: water solubility
Type: physicochemical
Settings: ph 7 buffer, pH 7

Row | water solubility | Compound
1 | 16100 µg/mL (≈ 47.7 mM) | CCCC(=O)OC[C@H]1O[C@@H](n2cnc3c(N)ncnc32)[C@@H](O)[C@@H]1O [Example 3, 9-(5-O-butyryl-β-D-arabinofuranosyl)adenine]

Same assay, conditions: ph 7 buffer, pH 7, aqueous buffer

Row | solubility | Compound
2 | 9900 µg/mL (≈ 32 mM) | CC(=O)OC[C@H]1O[C@@H](n2cnc3c(N)ncnc32)[C@@H](O)[C@@H]1O [Example 1, 9-(5-O-acetyl-β-D-arabinofuranosyl)adenine]
3 | 9200 µg/mL (≈ 28.5 mM) | CCC(=O)OC[C@H]1O[C@@H](n2cnc3c(N)ncnc32)[C@@H](O)[C@@H]1O [Example 2, 9-(5-O-propionyl-β-D-arabinofuranosyl)adenine]
4 | 8400 µg/mL (≈ 23.9 mM) | CCCCC(=O)OC[C@H]1O[C@@H](n2cnc3c(N)ncnc32)[C@@H](O)[C@@H]1O [Example 4]
5 | 16400 µg/mL (≈ 46.7 mM) | CC(C)CC(=O)OC[C@H]1O[C@@H](n2cnc3c(N)ncnc32)[C@@H](O)[C@@H]1O [Example 5, 9-[5-O-(3-methylbutyryl)-β-D-arabinofuranosyl]-adenine]
6 | 7000 µg/mL (≈ 19.9 mM) | CC(C)(C)C(=O)OC[C@H]1O[C@@H](n2cnc3c(N)ncnc32)[C@@H](O)[C@@H]1O [Example 6, 9-[5-O-(2,2-dimethylpropionyl)-β-D-arabinofuranosyl]-adenine]
7 | 2500 µg/mL (≈ 6.84 mM) | CCCCCC(=O)OC[C@H]1O[C@@H](n2cnc3c(N)ncnc32)[C@@H](O)[C@@H]1O [Example 7, 9-(5-O-hexanoyl-β-D-arabinofuranosyl)adenine]
